Measurements taken from ChEMBL document CHEMBL5579888, “A Comparative Study on the DNA Interactions and Biological Activities of Benzophenanthridine and Protoberberine Alkaloids” (J Nat Prod, 2024).
The source made the active and inactive calls. No cut-off for these calls is given here.

Assays:
dsDNA [1] = test: Binding affinity to double stranded DNA ssab (unknown origin) at 20 uM by UV-Visible absorption spectroscopic analysis; format: nucleic-acid assay
Quadruplex DNA [2] = test: Binding affinity to human G4-quadruplex 22AG DNA 5'- AGGGTTAGGGTTAGGGTTAGGG -3' assessed as change in fluorescence intensity at 1 uM incubated for 0.5 hrs by fluorescence spectra analysis; format: nucleic-acid assay
Quadruplex DNA [3] = test: Displacement of ThT from human G4-quadruplex Oxy28 DNA 5'- GGGGTTTTGGGGTTTTGGGGTTTTGGGG -3' incubated for 0.5 hrs by SpectraMax M2 microplate reader analysis; format: nucleic-acid assay
dsDNA [4] = test: Binding affinity to double stranded DNA AT12 (unknown origin) incubated for 0.5 hrs in presence of different concentration DNA by fluorescence spectra analysis; format: nucleic-acid assay
A-375 [5] = test: Induction of cell cycle arrest in human A-375 cells assessed assessed as cell accumulation at S phase at 5 uM incubated for 24 hrs by propidium iodide staining based flow cytometry (reference value: 30.05 %); format: functional
dsDNA [6] = test: Binding affinity to double stranded DNA ssab2 (unknown origin) incubated for 0.5 hrs in presence of different concentration DNA by fluorescence spectra analysis; format: nucleic-acid assay
Quadruplex DNA [7] = test: Displacement of ThT from human G4-quadruplex Pu27 DNA 5'- TGGGGAGGGTGGGGAGGGTGGGGAAGG-3' incubated for 0.5 hrs by SpectraMax M2 microplate reader analysis; format: nucleic-acid assay
Quadruplex DNA [8] = test: Binding affinity to human G4-quadruplex c-kit2 DNA 5'- CGGGCGGGCGCGAGGGAGGGT-3' assessed as change in fluorescence intensity at 1 uM incubated for 0.5 hrs by fluorescence spectra analysis; format: nucleic-acid assay
Quadruplex DNA [9] = test: Binding affinity to human G4-quadruplex Pu27 DNA 5'- TGGGGAGGGTGGGGAGGGTGGGGAAGG-3' assessed as change in fluorescence intensity at 1 uM incubated for 0.5 hrs in presence of different concentrations of DNA by fluorescence spectra analysis; format: nucleic-acid assay
dsDNA [10] = test: Binding affinity to double stranded DNA ssab (unknown origin) assessed as change in fluorescence intensity at 1 uM incubated for 0.5 hrs by fluorescence spectra analysis; format: nucleic-acid assay
A-375 [11] = test: Inhibition of RNA synthesis in human A-375 cells at 5 uM incubated for 24 hrs by EU incorporation based flow cytometry analysis; format: functional, cell-based
Quadruplex DNA [12] = test: Binding affinity to human G4-quadruplex Oxy28 DNA 5'- GGGGTTTTGGGGTTTTGGGGTTTTGGGG -3' at 20 uM by UV-Visible absorption spectroscopic analysis; format: nucleic-acid assay
Quadruplex DNA [13] = test: Binding affinity to human G4-quadruplex c-kit2 DNA 5'- CGGGCGGGCGCGAGGGAGGGT-3' assessed as change in fluorescence intensity at 1 uM incubated for 0.5 hrs in presence of different concentrations of DNA by fluorescence spectra analysis; format: nucleic-acid assay
Quadruplex DNA [14] = test: Binding affinity to human G4-quadruplex Bcl2 DNA 5'- CGGGCGCGGGAGGAAGGGGGCGGGAGC-3' at 20 uM by UV-Visible absorption spectroscopic analysis; format: nucleic-acid assay
Quadruplex DNA [15] = test: Binding affinity to human G4-quadruplex KRAS DNA 5'- AGGGCGGTGTGGGAAGAGGGAAGAGGGGGAGG-3' assessed as change in fluorescence intensity at 1 uM incubated for 0.5 hrs in presence of different concentrations of DNA by fluorescence spectra analysis; format: nucleic-acid assay
A-375 [16] = test: Induction of cell cycle arrest in human A-375 cells assessed assessed as cell accumulation at G2/M phase at 5 uM incubated for 24 hrs by propidium iodide staining based flow cytometry (reference value: 15.70 %); format: functional
Quadruplex DNA [17] = test: Binding affinity to human G4-quadruplex VEGF DNA 5'- GGGCGGGCCGGGGGCGGG-3' assessed as change in fluorescence intensity at 1 uM incubated for 0.5 hrs by fluorescence spectra analysis; format: nucleic-acid assay
Quadruplex DNA [18] = test: Binding affinity to human G4-quadruplex Oxy28 DNA 5'- GGGGTTTTGGGGTTTTGGGGTTTTGGGG -3' at 10 uM by CD spectra analysis; format: nucleic-acid assay
dsDNA [19] = test: Binding affinity to double stranded DNA ssab (unknown origin) incubated for 0.5 hrs in presence of different concentration DNA by fluorescence spectra analysis; format: nucleic-acid assay
Quadruplex DNA [20] = test: Binding affinity to human G4-quadruplex VEGF DNA 5'- GGGCGGGCCGGGGGCGGG-3' assessed as change in fluorescence intensity at 1 uM incubated for 0.5 hrs in presence of different concentrations of DNA by fluorescence spectra analysis; format: nucleic-acid assay
Quadruplex DNA [21] = test: Binding affinity to human G4-quadruplex 22AG DNA 5'- AGGGTTAGGGTTAGGGTTAGGG -3' assessed as change in fluorescence intensity at 1 uM incubated for 0.5 hrs in presence of different concentrations of DNA by fluorescence spectra analysis; format: nucleic-acid assay
A-375 [22] = test: Induction of DNA damage in human A-375 cells assessed as appearance of long DNA tails at 5 uM incubated for 24 hrs by comet assay; format: functional, cell-based
dsDNA [23] = test: Binding affinity to double stranded DNA AT15-6AT (unknown origin) incubated for 0.5 hrs in presence of different concentration DNA by fluorescence spectra analysis; format: nucleic-acid assay
dsDNA [24] = test: Binding affinity to double stranded DNA AT17 (unknown origin) incubated for 0.5 hrs in presence of different concentration DNA by fluorescence spectra analysis; format: nucleic-acid assay
Quadruplex DNA [25] = test: Binding affinity to human G4-quadruplex Oxy28 DNA 5'- GGGGTTTTGGGGTTTTGGGGTTTTGGGG -3' assessed as change in fluorescence intensity at 1 uM incubated for 0.5 hrs in presence of different concentrations of DNA by fluorescence spectra analysis; format: nucleic-acid assay
Quadruplex DNA [26] = test: Displacement of ThT from human G4-quadruplex VEGF DNA 5'- GGGCGGGCCGGGGGCGGG-3' incubated for 0.5 hrs by SpectraMax M2 microplate reader analysis; format: nucleic-acid assay
dsDNA [27] = test: Binding affinity to double stranded DNA AT9 (unknown origin) incubated for 0.5 hrs in presence of different concentration DNA by fluorescence spectra analysis; format: nucleic-acid assay
dsDNA [28] = test: Binding affinity to double stranded DNA AT15-2AT (unknown origin) incubated for 0.5 hrs in presence of different concentration DNA by fluorescence spectra analysis; format: nucleic-acid assay
Quadruplex DNA [29] = test: Binding affinity to human G4-quadruplex Bcl2 DNA 5'- CGGGCGCGGGAGGAAGGGGGCGGGAGC-3' assessed as change in fluorescence intensity at 1 uM incubated for 0.5 hrs by fluorescence spectra analysis; format: nucleic-acid assay
Quadruplex DNA [30] = test: Binding affinity to human G4-quadruplex KRAS DNA 5'- AGGGCGGTGTGGGAAGAGGGAAGAGGGGGAGG-3' assessed as change in fluorescence intensity at 1 uM incubated for 0.5 hrs by fluorescence spectra analysis; format: nucleic-acid assay
dsDNA [31] = test: Binding affinity to double stranded DNA ssab3 (unknown origin) incubated for 0.5 hrs in presence of different concentration DNA by fluorescence spectra analysis; format: nucleic-acid assay
Quadruplex DNA [32] = test: Displacement of ThT from human G4-quadruplex KRAS DNA 5'- AGGGCGGTGTGGGAAGAGGGAAGAGGGGGAGG-3' incubated for 0.5 hrs by SpectraMax M2 microplate reader analysis; format: nucleic-acid assay
Calf thymus DNA = test: Displacement of Hoechst 33342 from calf thymus DNA incubated for 0.5 hrs by SpectraMax M2 microplate reader analysis; format: nucleic-acid assay, Bos taurus

Structure (SMILES)	Activity (dsDNA [1])	Activity (Quadruplex DNA [2])	DC50 (Quadruplex DNA [3]) [µM]	EC50 (dsDNA [4]) [µM]	Activity (A-375 [5]) [%]	EC50 (dsDNA [6]) [µM]	DC50 (Quadruplex DNA [7]) [µM]	Activity (Quadruplex DNA [8])	Kd (Quadruplex DNA [9]) [µM]	Activity (dsDNA [10])	inhibition (A-375 [11])	Activity (Quadruplex DNA [12])	Activity (Quadruplex DNA [14])	Kd (Quadruplex DNA [15]) [µM]	Activity (A-375 [16]) [%]	Activity (Quadruplex DNA [17])	Activity (Quadruplex DNA [18])	EC50 (dsDNA [19]) [µM]	Activity (A-375 [22])	EC50 (dsDNA [23]) [µM]	also measured
COc1ccc2cc3[n+](cc2c1OC)CCc1cc2c(cc1-3)OCO2 [BERBERINE]	inactive	Active	3.1	0.13	28.42	0.1	0.54	Active	5.4	inactive	inactive	Active	Active	1.89	14.59	Active	inactive	1.04	inactive	0.4	Kd (Quadruplex DNA [13]): 4.22 µM; Kd (Quadruplex DNA [20]): 4.96 µM; Kd (Quadruplex DNA [21]): 15.6 µM; EC50 (dsDNA [24]): 0.72 µM; Kd (Quadruplex DNA [25]): 1.67 µM; DC50 (Quadruplex DNA [26]): 0.58 µM; Activity (dsDNA [27]): inactive; EC50 (dsDNA [28]): 0.15 µM; Activity (Quadruplex DNA [29]): Active; Activity (Quadruplex DNA [30]): Active; EC50 (dsDNA [31]): 0.23 µM; DC50 (Quadruplex DNA [32]): 2.64 µM; DC50 (Calf thymus DNA): 30.7 µM
COc1ccc2c(c[n+](C)c3c4cc5c(cc4ccc23)OCO5)c1OC [CHELERYTHRINE]	Active	Active	1.15	2.11	33.02	1.06	0.48	Active	5.29	Active	Active	Active	Active	1.07	30.83	Active	inactive	1.06	Active	1.09	Activity (Quadruplex DNA [13]): inactive; Activity (Quadruplex DNA [20]): inactive; Activity (Quadruplex DNA [21]): inactive; EC50 (dsDNA [24]): 3.89 µM; Activity (Quadruplex DNA [25]): inactive; DC50 (Quadruplex DNA [26]): 0.41 µM; Activity (dsDNA [27]): inactive; EC50 (dsDNA [28]): 1.12 µM; Activity (Quadruplex DNA [29]): Active; Activity (Quadruplex DNA [30]): Active; EC50 (dsDNA [31]): 1.29 µM; DC50 (Quadruplex DNA [32]): 0.85 µM; DC50 (Calf thymus DNA): 6.7 µM
c1c2c(cc3c1OCO3)-c1cc3ccc4c(c3c[n+]1CC2)OCO4 [COPTISINE]	inactive	Active	0.58	18.5	28.21	7.25	0.14	Active	2.17	inactive	inactive	Active	Active	1.13	14.48	Active	inactive	5.57	inactive	8.04	Kd (Quadruplex DNA [13]): 2.59 µM; Kd (Quadruplex DNA [20]): 3.39 µM; Kd (Quadruplex DNA [21]): 5.93 µM; EC50 (dsDNA [24]): 7.78 µM; Kd (Quadruplex DNA [25]): 0.98 µM; DC50 (Quadruplex DNA [26]): 0.12 µM; EC50 (dsDNA [27]): 7.12 µM; EC50 (dsDNA [28]): 3.92 µM; Activity (Quadruplex DNA [29]): Active; Activity (Quadruplex DNA [30]): Active; EC50 (dsDNA [31]): 5.84 µM; DC50 (Quadruplex DNA [32]): 0.38 µM; DC50 (Calf thymus DNA): 31.4 µM
C[n+]1cc2c3c(ccc2c2ccc4cc5c(cc4c21)OCO5)OCO3 [SANGUINARIUM]	Active	Active	0.74	4.15	31.29	1.63	0.26	Active	7.19	Active	Active	Active	Active	2.79	27.86	Active	inactive	0.74	Active	1.23	Activity (Quadruplex DNA [13]): inactive; Activity (Quadruplex DNA [20]): inactive; Activity (Quadruplex DNA [21]): inactive; EC50 (dsDNA [24]): 2.33 µM; Activity (Quadruplex DNA [25]): inactive; DC50 (Quadruplex DNA [26]): 0.14 µM; Activity (dsDNA [27]): inactive; EC50 (dsDNA [28]): 1.07 µM; Activity (Quadruplex DNA [29]): Active; Activity (Quadruplex DNA [30]): Active; EC50 (dsDNA [31]): 1.48 µM; DC50 (Quadruplex DNA [32]): 0.58 µM; DC50 (Calf thymus DNA): 5.87 µM
